Results on 13 molecules are retold here after US20250345277A1, “Ionizable Liposome, Preparation Thereof, and Application Thereof in Gene Delivery” (MAXIRNA (ZHEJIANG) TECHNOLOGY CO. LTD., priority 2021, published 2025).

For one data set, the system named is DC2.4 cells. Nature of the data set: In vitro transfection of DC2.4 cells with EGFP mRNA LNP preparation (flow cytometry). It is filed as cell-based, mouse. To be noted: DC2.4 cells; for Cell Viability / Positive Rate (EGFP): EGFP mRNA LNP, 200 ng mRNA per well, flow cytometry; for Fluorescence Intensity: EGFP mRNA expression level, normalized based on the sample with the highest fluorescence intensity. The text has this: The description is based on peripheral blood mononuclear cells PBMC (Shanghai Oribiotech Co., Ltd.), human peripheral blood leukemia T cell Jurkat (ATCC), tumor infiltrating lymphocyte TIL (isolated from resected tumor tissue of a liver cancer patient, the preparation method refers to CN114763530A), mouse bone marrow-derived dendritic cells DC2.4 (Cell Bank of the Chinese Academy of Sciences), and Chinese hamster ovary cells CHO (ATCC) were used as verified cell lines for liposome transfection. PBMC, Jurkat, and TIL cells grew in suspension, while DC2.4 and CHO cells grew by adherent culture. All the operation steps of cell culture must strictly abide by the prescribed procedures, and sterile reagents is used to perform aseptic operations under a sterile workbench. The main steps are as follows: • 1) Cell recovery: the preserved cell cryopreservation solution was taken out of the −80° C. refrigerator, and was immediately put in a 37° C. water bath for rapid and continuous shaking, and was completely melted within one minute. Fresh medium was added to the 15 mL centrifuge tube in advance, and the cell solution was added to the centrifuge tube in a biological safety cabinet. A centrifuge tube of the same quality was taken and placed symmetrically in a centrifuge, centrifuged at a low speed at 1200 rpm for 5 min. After centrifugation, the supernatant was removed, and an appropriate amount of medium was slowly added along the tube wall. After the cells were evenly dispersed by blowing gently, the cell suspension was pipette and added to the culture bottle prepared in advance. The state and distribution of the cells in the early stage of recovery were observed under a microscope. The culture bottle was placed in a 5% CO2 incubator and incubated at 37° C., and the recovery time was recorded. • 2) Cell subculture: Under the microscope, if the cell density in the field of view reaches 80%-90%, the cells can be subcultured. Adherent cells need to be digested with trypsin. In order to avoid the residual serum in the culture medium to reduce the activity of trypsin, DPBS solution was added to wash once after removing the original culture medium. After remove the DPBS solution, trypsin was added to degrade the protein at the junction between cells. This separates the cells for further culture. The cells were gently shaked evenly and put into the incubator for digestion for 2 min. Immediately after the digestion was completed, an appropriate amount of medium was added to the original petri dish to terminate the digestion. Finally, the cells were carefully blowed off using a pipette and blowed until they are evenly dispersed, and then inoculated and subcultured at a certain ratio according to the experimental requirements. […]
• 1) DC2.4 cells recovery: the frozen DC2.4 cells were taken out from the −80° C. refrigerator, put in a 37° C. water bath to quickly thaw the cells, added to the preheated medium after thawing, centrifuged at 1200 rpm for 5 min, the supernatant was discarded, and an appropriate amount of DMEM medium with 10% FBS was added to resuspend the recovered DC2.4, and placed in a 5% CO2 incubator at 37° C. for activation and culture. • 2) According to the experimental arrangement, DC2.4 cells were plated on a 24-well plate one day in advance for cell transfection. Through cell counting, the number of cells and cell viability were recorded, the cell suspension were taken at 2×10^5 cells per well, then a certain volume of DMEM medium containing 10% FBS was added and mixed evenly, 1 mL of mixture was added to each well for subsequent transfection experiment. • 3) After 24 hours, the medium was gently removed 30 minutes in advance by a pipette, 1 mL DPBS was added to each well for washing and then removed, then 300 μL serum-free Opti-MEM medium was added to each well for subsequent transfection experiments.
Subsequent steps are the same as the transfection protocol for PBMC cells. […]
In general terms: Flow cytometry measures light scatter and fluorescence of single cells or particles in a stream.

Data set [1] in a line: Size and polydispersity index PDI of lipid nanoparticles (Malvern Zetasizer Nano ZS). It is filed as physicochemical. Particulars: LNP ionizable lipid/DOPE/cholesterol/DSPE-PEG2000 35/16/46.5/2.5 mol% encapsulating EGFP mRNA; for Particle Size: in nm (unit assumed). Here is the method:
(§1) The ionizable lipid compound of Example 1 was dissolved in ethanol with DOPE, cholesterol and DSPE-PEG2000 (all purchased from AVT (Shanghai) Pharmaceutical Technology Co., Ltd.) at a molar ratio of 35:16:46.5:2.5 to prepare ethanol lipid solution, and enhanced green fluorescent protein (EGFP) mRNAs (Shanghai Maximna Pharmaceutical Engineering Co., Ltd., JN-4201) were diluted in 20 mM citrate buffer (pH=6.1) to obtain mRNA aqueous solution. Ethanol lipid solution and mRNA aqueous solution were mixed at a volume ratio of 1:3 by using a microfluidic device (Micro&Nano (Shanghai) Instrument Technology Co., Ltd., model: INano™ML), LNPs were prepared with a weight ratio of approximately 10:1 between total lipids and mRNAs. The medium was replaced by ultrafiltration, ethanol was removed and volumed with DPBS. Finally, the lipid nanoparticles were filtered through a 0.2 μm sterile filter to obtain a LNP formulation encapsulating eGFP mRNA using ionizable lipid/DOPE/cholesterol/DSPE-PEG2000 (35/16/46.5/2.5 mol %), the concentration of mRNAs being 0.002 mg/mL-0.5 mg/mL.
Using Malvern Zetasizer Nano ZS (Malvern UK), the size and polydispersity index PDI of lipid nanoparticles were measured at […].

Data set [2] in a line: Entrapment efficiency of LNP preparation encapsulating EGFP mRNA. It is filed as physicochemical. Particulars: LNP ionizable lipid/DOPE/cholesterol/DSPE-PEG2000 35/16/46.5/2.5 mol% encapsulating EGFP mRNA. How it is done: as §1, with “mg/mL. […]” for “mg/mL.”

In the case of `CCCCCCCCCCCCCCC(O)CN(CCN(CCN1CCN(CCO)CC1)CCN(CC(O)CCCCCCCCCCCCCC)CC(O)CCCCCCCCCCCCCC)CC(O)CCCCCCCCCCCCCC` (stereo not drawn) [I-C16], in the data set on DC2.4 cells, the “Cell Viability” value was found to be 81.3%, the “Positive Rate (EGFP)” value stood at 68.7% and the “Fluorescence Intensity” value is 0.06. For the same molecule, in data set [1], the PDI is 0.147 and the “Particle Size” value came out at 96.3. Also, the “Entrapment Efficiency” value in data set [2] is recorded as 91.60%.

Turning to `CCCCCCCCCCCCCCCCC(O)CN(CCN(CCN1CCN(CCO)CC1)CCN(CC(O)CCCCCCCCCCCCCCCC)CC(O)CCCCCCCCCCCCCCCC)CC(O)CCCCCCCCCCCCCCCC` (stereo not drawn) [I-C18], in the data set with DC2.4 cells, the “Cell Viability” value was found to be 86.0%, the “Positive Rate (EGFP)” value was determined as 66.4% and the “Fluorescence Intensity” value worked out at 0.04. In data set [1], the PDI is given as 0.109 and the “Particle Size” value is given as 72.3. The “Entrapment Efficiency” value in data set [2] was found to be 83.06%.

In the case of `CCCCCCCCCCC(O)CN(CCOCCN(CCOCCN(CC(O)CCCCCCCCCC)CC(O)CCCCCCCCCC)CCN1CCN(CCO)CC1)CC(O)CCCCCCCCCC` (stereo not drawn) [J-C12], in the data set with DC2.4 cells, the “Cell Viability” value is listed as 81.8%, the “Positive Rate (EGFP)” value is 62.6% and the “Fluorescence Intensity” value was 0.04. For the same molecule, in data set [1], the PDI stood at 0.105 and the “Particle Size” value turned out to be 99.7. Moreover, the “Entrapment Efficiency” value in data set [2] came to 92.88%.

As for `CCCCCCCCCCCCC(O)CN(CCOCCN(CCOCCN(CC(O)CCCCCCCCCCCC)CC(O)CCCCCCCCCCCC)CCN1CCN(CCO)CC1)CC(O)CCCCCCCCCCCC` (stereo not drawn) [J-C14], in the data set with DC2.4 cells, the “Cell Viability” value is on record as greater than 99.0%, the “Positive Rate (EGFP)” value came to 59.1% and the “Fluorescence Intensity” value turned out to be 0.06. In addition, in data set [1], the PDI is on record as 0.121 and the “Particle Size” value worked out at 126.1. Further, the “Entrapment Efficiency” value in data set [2] is given as 83.58%.

Regarding `CCCCCCCCCCCCCCC(O)CN(CCOCCN(CCOCCN(CC(O)CCCCCCCCCCCCCC)CC(O)CCCCCCCCCCCCCC)CCN1CCN(CCO)CC1)CC(O)CCCCCCCCCCCCCC` (stereo not drawn) [J-C16], in the data set on DC2.4 cells, the “Cell Viability” value was found to be 85.2%, the “Positive Rate (EGFP)” value was 62.0% and the “Fluorescence Intensity” value stood at 0.04. In addition, in data set [1], the PDI came to 0.077 and the “Particle Size” value is 104.1. For the same molecule, in data set [2], the “Entrapment Efficiency” value is reported as 81.08%.

Regarding `CCCCCCCCCCCCCCCCC(O)CN(CCOCCN(CCOCCN(CC(O)CCCCCCCCCCCCCCCC)CC(O)CCCCCCCCCCCCCCCC)CCN1CCN(CCO)CC1)CC(O)CCCCCCCCCCCCCCCC` (stereo not drawn) [J-C18], in the data set with DC2.4 cells, the “Cell Viability” value is 83.6%, the “Positive Rate (EGFP)” value amounted to 60.9% and the “Fluorescence Intensity” value was determined as 0.04. In addition, in data set [1], the PDI was determined as 0.163 and the “Particle Size” value came to 93.7. The “Entrapment Efficiency” value in data set [2] is listed as 88.56%.

For `CCCCCCCCCCC(O)CN(CCOCCOCCN(CCOCCOCCN(CC(O)CCCCCCCCCC)CC(O)CCCCCCCCCC)CCN1CCN(CCO)CC1)CC(O)CCCCCCCCCC` (stereo not drawn) [K-C12], in the data set with DC2.4 cells, the “Cell Viability” value is listed as greater than 99.0%, the “Positive Rate (EGFP)” value came out at 62.8% and the “Fluorescence Intensity” value is 0.07. In data set [1], the PDI is 0.075 and the “Particle Size” value came out at 75.9. In data set [2], the “Entrapment Efficiency” value is reported as 92.83%.

Turning to `CCCCCCCCCCCCC(O)CN(CCOCCOCCN(CCOCCOCCN(CC(O)CCCCCCCCCCCC)CC(O)CCCCCCCCCCCC)CCN1CCN(CCO)CC1)CC(O)CCCCCCCCCCCC` (stereo not drawn) [K-C14], in the data set on DC2.4 cells, the “Cell Viability” value is reported as 82.3%, the “Positive Rate (EGFP)” value is reported as 59.8% and the “Fluorescence Intensity” value stood at 0.03. Besides, in data set [1], the PDI turned out to be 0.155 and the “Particle Size” value turned out to be 122.7. In data set [2], the “Entrapment Efficiency” value came to 87.00%.

For `CCCCCCCCCCCCCCC(O)CN(CCOCCOCCN(CCOCCOCCN(CC(O)CCCCCCCCCCCCCC)CC(O)CCCCCCCCCCCCCC)CCN1CCN(CCO)CC1)CC(O)CCCCCCCCCCCCCC` (stereo not drawn) [K-C16], in the data set on DC2.4 cells, the “Cell Viability” value was found to be 93.4%, the “Positive Rate (EGFP)” value is 60.2% and the “Fluorescence Intensity” value is 0.04. Also, in data set [1], the PDI was 0.185 and the “Particle Size” value turned out to be 76.0. Moreover, the “Entrapment Efficiency” value in data set [2] worked out at 95.74%.

In the case of `CCCCCCCCCCCCCCCCC(O)CN(CCOCCOCCN(CCOCCOCCN(CC(O)CCCCCCCCCCCCCCCC)CC(O)CCCCCCCCCCCCCCCC)CCN1CCN(CCO)CC1)CC(O)CCCCCCCCCCCCCCCC` (stereo not drawn) [K-C18], in the data set with DC2.4 cells, the “Cell Viability” value is greater than 99.0%, the “Positive Rate (EGFP)” value was 74.7% and the “Fluorescence Intensity” value was determined as 0.05. Moreover, in data set [1], the PDI is 0.134 and the “Particle Size” value was 124.2. Moreover, the “Entrapment Efficiency” value in data set [2] is given as 92.77%.

For `CCCCCCCCCCC(O)CN(CCOCCOCCOCCN(CCOCCOCCOCCN(CC(O)CCCCCCCCCC)CC(O)CCCCCCCCCC)CCN1CCN(CCO)CC1)CC(O)CCCCCCCCCC` [L-C12], in the data set with DC2.4 cells, the “Cell Viability” value turned out to be 84.9%, the “Positive Rate (EGFP)” value amounted to 58.1% and the “Fluorescence Intensity” value was found to be 0.07. In addition, in data set [1], the PDI came out at 0.181 and the “Particle Size” value worked out at 88.4. In data set [2], the “Entrapment Efficiency” value turned out to be 93.38%.

Take `CCCCCCCCCCCCC(O)CN(CCOCCOCCOCCN(CCOCCOCCOCCN(CC(O)CCCCCCCCCCCC)CC(O)CCCCCCCCCCCC)CCN1CCN(CCO)CC1)CC(O)CCCCCCCCCCCC` [L-C14]: in the data set with DC2.4 cells, the “Cell Viability” value is reported as 99.0%, the “Positive Rate (EGFP)” value is given as 60.0% and the “Fluorescence Intensity” value turned out to be 0.04. In data set [1], the PDI was 0.126 and the “Particle Size” value came out at 101.5. Also, the “Entrapment Efficiency” value in data set [2] is recorded as 91.54%.

As to `CCCCCCCCCCCCCCC(O)CN(CCOCCOCCOCCN(CCOCCOCCOCCN(CC(O)CCCCCCCCCCCCCC)CC(O)CCCCCCCCCCCCCC)CCN1CCN(CCO)CC1)CC(O)CCCCCCCCCCCCCC` [L-C16], in the data set with DC2.4 cells, the “Cell Viability” value came to 97.2%, the “Positive Rate (EGFP)” value worked out at 64.8% and the “Fluorescence Intensity” value worked out at 0.06. For the same molecule, in data set [1], the PDI stood at 0.085 and the “Particle Size” value is reported as 111.5. In addition, the “Entrapment Efficiency” value in data set [2] was 92.34%.
